Reference: paper PMC4957924, “Prediction and verification of novel peptide targets of protein tyrosine phosphatase 1B” (Bioorganic & Medicinal Chemistry, 2016)
Read-outs that look alike come from different tables or passages of the source.

Tests used:
[1] = target: T1, PTP1B (Homo sapiens, UniProt P18031); test: in vitro EnzChek phosphate assay of PTP1B against synthesized phosphopeptides; assay type: biochemical; details: for kcat/Km / Km: peptide as substrate of PTP1B, value ± spread as printed; for recognition as substrate by PTP1B (in words): compared with Src positive control peptide
T1 construct: PTP1B was expressed and purified as described previously; made in house
T1 sequence (P18031 1-435): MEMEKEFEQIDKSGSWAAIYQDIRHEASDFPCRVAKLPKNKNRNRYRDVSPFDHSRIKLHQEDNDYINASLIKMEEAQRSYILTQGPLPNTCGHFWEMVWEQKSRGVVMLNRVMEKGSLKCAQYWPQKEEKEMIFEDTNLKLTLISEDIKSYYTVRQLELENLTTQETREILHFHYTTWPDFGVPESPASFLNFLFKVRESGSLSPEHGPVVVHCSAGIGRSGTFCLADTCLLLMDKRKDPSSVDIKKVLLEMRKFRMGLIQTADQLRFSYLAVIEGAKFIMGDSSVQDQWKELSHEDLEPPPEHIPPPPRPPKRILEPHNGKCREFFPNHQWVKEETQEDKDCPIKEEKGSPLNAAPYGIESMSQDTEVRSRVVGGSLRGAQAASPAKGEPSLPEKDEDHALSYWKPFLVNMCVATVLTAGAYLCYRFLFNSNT
Description: (§1) To test if the predicted phosphopeptides would indeed be in vitro substrates of PTP1B, we synthesized six of these peptides. The two peptides from JAK1 were not synthesized and tested because the sequences are highly similar to the ones of the known substrates JAK2[20] and MET[21] that were also detected by our procedure. […] (Table 1).
PTP1B was expressed and purified as described previously.[3]
The in vitro EnzChek phosphate assay was carried out with the commercial kit from Molecular Probes as described previously.[23]

[2] = target: T1, PTP1B; details: JAK2-derived phosphopeptide as PTP1B substrate; cited from earlier work
Excerpt: as §1, with “With the ex ...” for “(Table 1).”

[3] = Solubility of synthesized peptide (observation); assay type: physicochemical; details: qualitative; peptide therefore not tested in the enzymatic assay
Excerpt: as §1

| Substance | kcat/Km [1] | Km ([1]; read-out: Km) | further results |
| --- | --- | --- | --- |
| QENPIpYKSPIN [Peptide 5, Predicted PTP1B phosphopeptide substrate from ITGB1, pY site 783] | 7.1 ± 3.0 ×10^−5 M^−1 s^−1 | 21.7 ± 8.9 µM |  |
| DPSDNpYAEPID [Peptide 1, Predicted PTP1B phosphopeptide substrate from ARHGAP5, pY site 1090] | 11.6 ± 3.4 ×10^−5 M^−1 s^−1 | 28.5 ± 5 µM |  |
| KKKKpYPKK [Peptide 7, reference compound] | Inactive |  | recognition as substrate by PTP1B (in words) [1]: not recognized; Km [1]: Inactive |
| KEpYpYKVK |  |  | Km [2]: 12.7 µM; kcat/Km [2]: 0.000232 M⁻¹ s⁻¹ |
| EEEDIpYEVLPD [Peptide 2, Predicted PTP1B phosphopeptide substrate from SKAP1, pY site 271] | 27.9 ± 13.9 ×10^−5 M^−1 s^−1 | 14.7 ± 3.2 µM |  |
| DNEDVpYTFKTP [Peptide 3, Predicted PTP1B phosphopeptide substrate from GAB2, pY site 293] | 9.2 ± 1.6 ×10^−5 M^−1 s^−1 | 17.1 ± 4.1 µM |  |
| IEDNEYTARQG [Fyn peptide, synthesized predicted phosphopeptide from Fyn] |  |  | solubility [3]: poor solubility |
| LGSRApYPHFCA [Peptide 8] |  | > 300 µM | recognition as substrate by PTP1B (in words) [1]: recognized it poorly |
| STEPQpYQPGEN [Peptide 6, positive control peptide from Src as known substrate of PTP1B, reference compound] | 9.0 ± 3.7 ×10^−5 M^−1 s^−1 | 29.1 ± 5.3 µM |  |
| IEDPpYpYGNDSD [Peptide 4, Predicted PTP1B phosphopeptide substrate from ACP1, pY site 133] | 8.9 ± 1.1 ×10^−5 M^−1 s^−1 | 20.1 ± 4.6 µM |  |
